Measurements: US20100010100A1, “DERMATOLOGICAL COMPOSITIONS WITH ANTI-AGING AND SKIN EVEN-TONING PROPERTIES” (priority 2008, published 2010)

Tested on: MelanoDerm™ in vitro skin model (MEL-300B melanoderms)
Assay: In vitro skin model test (MelanoDerm skin-lightening, digital image quantification)
Format: cell-based
Conditions: for pixel density / lightening: 14 days; for pixel density: pixel content of untreated set at 1.00; for lightening: vs untreated
Experimental: The skin-lightening effect was validated on the in vitro skin model, the MelanoDerm™ carried out by MatTek using MEL-300B melanoderms. This model is very similar in structure and function to the natural skin and has the cell types relevant in the epidermis including the melanocytes, which are responsible for the synthesis of the main pigment melanin. Further information can be found, for example, in http://www.mattek.com/pages/in_vitro_basics. The study was carried out over a period of 14 days at two concentrations, 10 μM and 60 μM. 1% Kojic acid was the positive standard and untreated as negative control.
Digital image quantification was achieved by subtracting a standard background value from the pixel content of regions of identical size. The pixel content of untreated cells was set at 1.00. Treatment with topical 1% kojic acid as a positive control gave pixel density of 0.96 or 4% lightening. Treatment with Duroquinone gave pixel density of 0.82 or 18% lightening at a concentration of 10 μM and 0.60 or 40% lightening at a concentration of 60 μM. Treatment with 2,5,6-trimethyl-3-(4-(trifluoromethyl)phenyl)cyclohexa-2,5-diene-1,4-dione gave pixel density of […] or 34% lightening at a concentration of 60 μM.

SMILES	effectiveness relative to kojic acid positive standard (10 μM vs 1% kojic acid)	pixel density (10 μM)	lightening (10 μM) [%]	effectiveness relative to kojic acid positive standard (60 μM vs 1% kojic acid)	pixel density (60 μM)	lightening (60 μM) [%]	pixel density (topical 1% (positive control))	lightening (topical 1% (positive control)) [%]
CC1=C(C)C(=O)C(C)=C(C)C1=O [Duroquinone, 2,3,5,6-tetramethylcyclohexa-2,5-diene-1,4-dione]	four and a half times as effective	0.82	18	ten times as effective	0.60	40		
O=c1cc(CO)occ1O [kojic acid, reference compound]							0.96	4
CC1=C(C)C(=O)C(c2ccc(C(F)(F)F)cc2)=C(C)C1=O [2,5,6-trimethyl-3-(4-(trifluoromethyl)phenyl)cyclohexa-2,5-diene-1,4-dione]				ten times as effective	0.69	34		
